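Values below derive from 48-hour exposures of cells grown in 96-well plates, with endpoints linearly interpolated between the two concentrations bracketing the appropriate inhibition level. TGI is the concentration that stops growth completely.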
Key:
Assay in all cases: NCI tumour cell line growth inhibition, 48 h
HCC-2998 colon = system: HCC-2998 colon
SK-MEL-5 melanoma = system: SK-MEL-5 melanoma
KM20L2 colon = system: KM20L2 colon
DMS 273 small cell lung = system: DMS 273 small cell lung
SK-MEL-28 melanoma = system: SK-MEL-28 melanoma
NCI-H522 lung = system: NCI-H522 lung
ACHN renal = system: ACHN renal
SNB-78 CNS = system: SNB-78 CNS
SW-620 colon = system: SW-620 colon
HT29 colon = system: HT29 colon
786-0 renal = system: 786-0 renal
SF-268 CNS = system: SF-268 CNS
CAKI-1 renal = system: CAKI-1 renal
A498 renal = system: A498 renal
DLD-1 colon = system: DLD-1 colon
MOLT-4 leukemia = system: MOLT-4 leukemia
UO-31 renal = system: UO-31 renal
SK-MEL-2 melanoma = system: SK-MEL-2 melanoma
A549 NSCLC = system: A549 NSCLC
OVCAR-5 ovarian = system: OVCAR-5 ovarian
HOP-62 NSCLC = system: HOP-62 NSCLC
SK-OV-3 ovarian = system: SK-OV-3 ovarian
OVCAR-8 ovarian = system: OVCAR-8 ovarian
M14 melanoma = system: M14 melanoma
HCT-15 colon = system: HCT-15 colon
RXF-631 renal = system: RXF-631 renal
NCI-H460 lung = system: NCI-H460 lung
UACC-62 melanoma = system: UACC-62 melanoma
SF-539 CNS = system: SF-539 CNS
SNB-75 CNS = system: SNB-75 CNS
NCI-H226 lung = system: NCI-H226 lung
OVCAR-4 ovarian = system: OVCAR-4 ovarian
SNB-19 CNS = system: SNB-19 CNS
KM12 colon = system: KM12 colon
LOX IMVI melanoma = system: LOX IMVI melanoma
K-562 leukemia = system: K-562 leukemia
XF 498 CNS = system: XF 498 CNS
IGROV1 ovarian = system: IGROV1 ovarian
RPMI-8226 leukemia = system: RPMI-8226 leukemia
U251 CNS = system: U251 CNS
SN12C renal = system: SN12C renal
HCT-116 colon = system: HCT-116 colon
MALME-3M melanoma = system: MALME-3M melanoma
M19-MEL melanoma = system: M19-MEL melanoma
HOP-92 NSCLC = system: HOP-92 NSCLC
LXFL 529 NSCLC = system: LXFL 529 NSCLC
CCRF-CEM leukemia = system: CCRF-CEM leukemia
RXF 393 renal = system: RXF 393 renal
EKVX NSCLC = system: EKVX NSCLC
OVCAR-3 ovarian = system: OVCAR-3 ovarian
UACC-257 melanoma = system: UACC-257 melanoma
COLO 205 colon = system: COLO 205 colon
NCI-H23 lung = system: NCI-H23 lung
TK-10 renal = system: TK-10 renal
DMS 114 small cell lung = system: DMS 114 small cell lung
HL-60(TB) leukemia = system: HL-60(TB) leukemia
SF-295 CNS = system: SF-295 CNS
SR leukemia = system: SR leukemia
HOP-18 NSCLC = system: HOP-18 NSCLC

SMILES: Nc1cccc2c1C(=O)c1cccc(N)c1C2=O
- TGI (HCC-2998 colon): > 100 µM
- TGI (SK-MEL-5 melanoma): > 100 µM
- TGI (KM20L2 colon): > 100 µM
- TGI (DMS 273 small cell lung): > 100 µM
- TGI (SK-MEL-28 melanoma): > 100 µM
- TGI (NCI-H522 lung): > 100 µM
- TGI (ACHN renal): > 100 µM
- TGI (SNB-78 CNS): > 100 µM
- TGI (SW-620 colon): > 100 µM
- TGI (HT29 colon): > 100 µM
- TGI (786-0 renal): > 100 µM
- TGI (SF-268 CNS): > 100 µM
- TGI (CAKI-1 renal): > 100 µM
- TGI (A498 renal): > 100 µM
- TGI (DLD-1 colon): > 100 µM
- TGI (MOLT-4 leukemia): > 100 µM
- TGI (UO-31 renal): > 100 µM
- TGI (SK-MEL-2 melanoma): > 100 µM
- TGI (A549 NSCLC): > 100 µM
- TGI (OVCAR-5 ovarian): > 100 µM
- TGI (HOP-62 NSCLC): > 100 µM
- TGI (SK-OV-3 ovarian): > 100 µM
- TGI (OVCAR-8 ovarian): > 100 µM
- TGI (M14 melanoma): > 100 µM
- TGI (HCT-15 colon): > 100 µM
- TGI (RXF-631 renal): > 100 µM
- TGI (NCI-H460 lung): > 100 µM
- TGI (UACC-62 melanoma): > 100 µM
- TGI (SF-539 CNS): > 100 µM
- TGI (SNB-75 CNS): > 100 µM
- TGI (NCI-H226 lung): > 100 µM
- TGI (OVCAR-4 ovarian): > 100 µM
- TGI (SNB-19 CNS): > 100 µM
- TGI (KM12 colon): > 100 µM
- TGI (LOX IMVI melanoma): > 100 µM
- TGI (K-562 leukemia): > 100 µM
- TGI (XF 498 CNS): 69.4 µM
- TGI (IGROV1 ovarian): > 100 µM
- TGI (RPMI-8226 leukemia): > 100 µM
- TGI (U251 CNS): > 100 µM
- TGI (SN12C renal): > 100 µM
- TGI (HCT-116 colon): > 100 µM
- TGI (MALME-3M melanoma): > 100 µM
- TGI (M19-MEL melanoma): > 100 µM
- TGI (HOP-92 NSCLC): > 100 µM
- TGI (LXFL 529 NSCLC): > 100 µM
- TGI (CCRF-CEM leukemia): > 100 µM
- TGI (RXF 393 renal): > 100 µM
- TGI (EKVX NSCLC): > 100 µM
- TGI (OVCAR-3 ovarian): > 100 µM
- TGI (UACC-257 melanoma): > 100 µM
- TGI (COLO 205 colon): > 100 µM
- TGI (NCI-H23 lung): > 100 µM
- TGI (TK-10 renal): > 100 µM

SMILES: CC(C)C1(O)C(c2ccccc2)=C(c2ccccc2)C(c2ccccc2)=C1c1ccccc1
- TGI (HCC-2998 colon): 30.4 µM
- TGI (SK-MEL-5 melanoma): 22.4 µM
- TGI (KM20L2 colon): 23.3 µM
- TGI (DMS 273 small cell lung): 37.1 µM
- TGI (NCI-H522 lung): 23.9 µM
- TGI (SNB-78 CNS): > 100 µM
- TGI (SW-620 colon): > 100 µM
- TGI (HT29 colon): 16 µM
- TGI (786-0 renal): 74.4 µM
- TGI (SF-268 CNS): 27.6 µM
- TGI (CAKI-1 renal): > 100 µM
- TGI (A498 renal): 56.3 µM
- TGI (DLD-1 colon): > 100 µM
- TGI (MOLT-4 leukemia): 9.27 µM
- TGI (UO-31 renal): 23.7 µM
- TGI (SK-MEL-2 melanoma): 18.9 µM
- TGI (A549 NSCLC): 54.6 µM
- TGI (OVCAR-5 ovarian): > 100 µM
- TGI (HOP-62 NSCLC): 30.1 µM
- TGI (SK-OV-3 ovarian): > 100 µM
- TGI (OVCAR-8 ovarian): > 100 µM
- TGI (M14 melanoma): 22.4 µM
- TGI (HCT-15 colon): 46.8 µM
- TGI (RXF-631 renal): 51.3 µM
- TGI (NCI-H460 lung): 46.8 µM
- TGI (UACC-62 melanoma): 20.9 µM
- TGI (DMS 114 small cell lung): 11.8 µM
- TGI (SF-539 CNS): 28.6 µM
- TGI (SNB-75 CNS): 58.5 µM
- TGI (NCI-H226 lung): 31.6 µM
- TGI (OVCAR-4 ovarian): > 100 µM
- TGI (HL-60(TB) leukemia): 7.07 µM
- TGI (SF-295 CNS): 30.2 µM
- TGI (SNB-19 CNS): > 100 µM
- TGI (KM12 colon): 17.9 µM
- TGI (LOX IMVI melanoma): 20 µM
- TGI (K-562 leukemia): > 100 µM
- TGI (XF 498 CNS): 14.2 µM
- TGI (IGROV1 ovarian): > 100 µM
- TGI (RPMI-8226 leukemia): 5.26 µM
- TGI (U251 CNS): 18.7 µM
- TGI (SN12C renal): 41.6 µM
- TGI (HCT-116 colon): 13.4 µM
- TGI (MALME-3M melanoma): 30.9 µM
- TGI (SR leukemia): 36 µM
- TGI (HOP-92 NSCLC): 50.2 µM
- TGI (LXFL 529 NSCLC): 51.9 µM
- TGI (CCRF-CEM leukemia): > 100 µM
- TGI (HOP-18 NSCLC): 52.7 µM
- TGI (RXF 393 renal): 13.3 µM
- TGI (EKVX NSCLC): 47 µM
- TGI (OVCAR-3 ovarian): 27.8 µM
- TGI (UACC-257 melanoma): 26.2 µM
- TGI (COLO 205 colon): 21.7 µM
- TGI (NCI-H23 lung): 91.3 µM
- TGI (TK-10 renal): 56.3 µM

SMILES: CCO/C=C/C(C)C1(C(=O)OCC)CCCCC1=O (stereo not drawn)
- TGI (HCC-2998 colon): > 100 µM
- TGI (SK-MEL-5 melanoma): > 100 µM
- TGI (KM20L2 colon): > 100 µM
- TGI (DMS 273 small cell lung): 47 µM
- TGI (SK-MEL-28 melanoma): > 100 µM
- TGI (NCI-H522 lung): > 100 µM
- TGI (ACHN renal): > 100 µM
- TGI (SNB-78 CNS): > 100 µM
- TGI (HT29 colon): > 100 µM
- TGI (786-0 renal): > 100 µM
- TGI (SF-268 CNS): > 100 µM
- TGI (CAKI-1 renal): > 100 µM
- TGI (A498 renal): > 100 µM
- TGI (DLD-1 colon): > 100 µM
- TGI (MOLT-4 leukemia): > 100 µM
- TGI (UO-31 renal): > 100 µM
- TGI (SK-MEL-2 melanoma): > 100 µM
- TGI (A549 NSCLC): > 100 µM
- TGI (OVCAR-5 ovarian): > 100 µM
- TGI (HOP-62 NSCLC): > 100 µM
- TGI (SK-OV-3 ovarian): > 100 µM
- TGI (OVCAR-8 ovarian): > 100 µM
- TGI (M14 melanoma): > 100 µM
- TGI (HCT-15 colon): > 100 µM
- TGI (RXF-631 renal): > 100 µM
- TGI (NCI-H460 lung): > 100 µM
- TGI (UACC-62 melanoma): > 100 µM
- TGI (DMS 114 small cell lung): > 100 µM
- TGI (SF-539 CNS): > 100 µM
- TGI (SNB-75 CNS): > 100 µM
- TGI (NCI-H226 lung): > 100 µM
- TGI (OVCAR-4 ovarian): > 100 µM
- TGI (HL-60(TB) leukemia): > 100 µM
- TGI (SF-295 CNS): > 100 µM
- TGI (SNB-19 CNS): > 100 µM
- TGI (KM12 colon): > 100 µM
- TGI (LOX IMVI melanoma): > 100 µM
- TGI (K-562 leukemia): > 100 µM
- TGI (XF 498 CNS): > 100 µM
- TGI (IGROV1 ovarian): > 100 µM
- TGI (RPMI-8226 leukemia): > 100 µM
- TGI (U251 CNS): > 100 µM
- TGI (SN12C renal): > 100 µM
- TGI (HCT-116 colon): > 100 µM
- TGI (MALME-3M melanoma): > 100 µM
- TGI (SR leukemia): > 100 µM
- TGI (M19-MEL melanoma): > 100 µM
- TGI (HOP-92 NSCLC): > 100 µM
- TGI (LXFL 529 NSCLC): > 100 µM
- TGI (CCRF-CEM leukemia): > 100 µM
- TGI (HOP-18 NSCLC): > 100 µM
- TGI (RXF 393 renal): > 100 µM
- TGI (EKVX NSCLC): > 100 µM
- TGI (OVCAR-3 ovarian): > 100 µM
- TGI (UACC-257 melanoma): > 100 µM
- TGI (COLO 205 colon): > 100 µM
- TGI (NCI-H23 lung): > 100 µM
- TGI (TK-10 renal): > 100 µM

From PubChem BioAssay (NCI)
